Patent US20240208992A1, “MACROCYCLES AS CFTR MODULATORS” (Idorsia Pharmaceuticals Ltd, priority 2021, published 2024)

Target: human F508del-CFTR (Homo sapiens, UniProt P13569, DEL508-508)
Test: F508del-CFTR cell surface expression (corrector activity), DiscoveRx ß-galactosidase complementation chemiluminescence assay in recombinant U2OS cell line;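 also: U2OS cells co-expressing ProLink-tagged F508del-CFTR and a membrane-anchored enzyme acceptor, where more surface CFTR restores β-galactosidase activity measured by chemiluminescence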
Details: U2OS cells, 16h compound incubation; for EC50: EC50, F508del-CFTR cell surface expression, geomean of several measurements; for Emax: U2OS, in relation to the Emax of the corrector lumacaftor (=100%), arithmetic mean

Sequence of human F508del-CFTR (P13569 with tags, fused parts or gaps DEL508-508): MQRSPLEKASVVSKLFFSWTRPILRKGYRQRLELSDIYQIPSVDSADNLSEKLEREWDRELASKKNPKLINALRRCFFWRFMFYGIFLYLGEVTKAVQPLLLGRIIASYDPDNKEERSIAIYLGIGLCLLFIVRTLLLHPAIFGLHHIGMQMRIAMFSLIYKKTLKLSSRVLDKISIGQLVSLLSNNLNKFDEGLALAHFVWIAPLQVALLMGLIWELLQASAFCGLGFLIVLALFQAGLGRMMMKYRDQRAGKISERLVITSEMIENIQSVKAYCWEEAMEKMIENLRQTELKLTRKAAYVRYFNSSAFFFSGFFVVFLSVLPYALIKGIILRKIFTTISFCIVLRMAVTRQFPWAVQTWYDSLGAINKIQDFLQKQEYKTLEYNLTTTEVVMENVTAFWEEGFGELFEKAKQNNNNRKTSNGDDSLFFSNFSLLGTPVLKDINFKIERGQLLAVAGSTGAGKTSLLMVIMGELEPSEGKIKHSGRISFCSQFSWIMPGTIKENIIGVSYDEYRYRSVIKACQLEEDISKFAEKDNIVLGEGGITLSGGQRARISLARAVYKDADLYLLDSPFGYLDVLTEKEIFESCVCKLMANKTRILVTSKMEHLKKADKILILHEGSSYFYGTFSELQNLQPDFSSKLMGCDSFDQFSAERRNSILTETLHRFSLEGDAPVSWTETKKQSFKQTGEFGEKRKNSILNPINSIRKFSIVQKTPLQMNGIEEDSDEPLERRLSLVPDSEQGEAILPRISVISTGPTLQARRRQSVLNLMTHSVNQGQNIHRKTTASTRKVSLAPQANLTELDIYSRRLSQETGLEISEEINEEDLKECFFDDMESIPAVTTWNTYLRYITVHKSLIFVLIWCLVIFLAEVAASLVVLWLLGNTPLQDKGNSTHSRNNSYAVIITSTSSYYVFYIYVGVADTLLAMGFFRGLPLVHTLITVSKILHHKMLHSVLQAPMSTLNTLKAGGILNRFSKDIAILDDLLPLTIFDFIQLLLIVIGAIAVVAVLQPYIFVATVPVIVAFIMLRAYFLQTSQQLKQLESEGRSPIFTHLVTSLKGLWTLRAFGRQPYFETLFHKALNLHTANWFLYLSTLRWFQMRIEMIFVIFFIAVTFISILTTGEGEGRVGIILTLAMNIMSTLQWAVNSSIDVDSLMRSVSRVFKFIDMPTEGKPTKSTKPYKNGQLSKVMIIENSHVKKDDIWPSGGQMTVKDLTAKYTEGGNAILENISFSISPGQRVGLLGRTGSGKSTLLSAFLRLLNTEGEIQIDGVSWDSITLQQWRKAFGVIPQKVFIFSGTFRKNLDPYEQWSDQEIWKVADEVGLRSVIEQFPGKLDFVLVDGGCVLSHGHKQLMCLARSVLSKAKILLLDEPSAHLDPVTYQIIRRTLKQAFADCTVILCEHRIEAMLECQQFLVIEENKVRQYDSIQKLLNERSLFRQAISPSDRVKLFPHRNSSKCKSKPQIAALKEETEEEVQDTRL

SMILES	EC50 [nM]	Emax [%]
COc1cc(CCNC(=O)[C@@H]2CC(=O)N(C)[C@@H](CC(C)C)C(=O)N(C)[C@H](CC(F)F)C(=O)N[C@H](Cc3ccccc3)COc3ccc4ncc(F)cc4c3C(=O)N2)on1 [Example 819, (3S,7S,10R,13R)-13-benzyl-10-(2,2-difluoroethyl)-20-fluoro-7-isobutyl-N-(2-(3-methoxyisoxazol-5-yl)ethyl)-6,9-dimethyl-1,5,8,11-tetraoxo-1,2,3,4,5,6,7,8,9,10,11,12,13,14-tetradecahydro-[1]oxa[4,7,10,14]tetraazacycloheptadecino[16,17-f]quinoline-3-carboxamide]	276	431
COc1nc(C)cc2c1C(=O)N[C@H](C(=O)NCCc1noc(C3CC3)n1)CC(=O)N(C)[C@@H](CC(C)C)C(=O)N(C)[C@H](Cc1nc(C(F)(F)F)no1)C(=O)N[C@H](Cc1ccccc1)CO2 [Example 820, (3R,6R,9S,13S)-3-benzyl-N-(2-(5-cyclopropyl-1,2,4-oxadiazol-3-yl)ethyl)-9-isobutyl-16-methoxy-7,10,18-trimethyl-5,8,11,15-tetraoxo-6-((3-(trifluoromethyl)-1,2,4-oxadiazol-5-yl)methyl)-2,3,4,5,6,7,8,9,10,11,12,13,14,15-tetradecahydropyrido[3,4-p][1]oxa[4,7,10,14]tetraazacycloheptadecine-13-carboxamide]	49	461
COc1noc(CCNC(=O)[C@@H]2CC(=O)N(C)[C@@H](CC(C)C)C(=O)N3CCCC[C@@H]3C(=O)N[C@H](Cc3ccccc3)COc3ccc4ncc(F)cc4c3C(=O)N2)n1 [Example 821, (9S,13S,19aR,22R)-22-benzyl-5-fluoro-13-isobutyl-N-(2-(3-methoxy-1,2,4-oxadiazol-5-yl)ethyl)-12-methyl-7,11,14,20-tetraoxo-7,8,9,10,11,12,13,14,17,18,19,19a,20,21,22,23-hexadecahydro-16H-pyrido[2′,1′:6,7][1]oxa[4,7,10,14]tetraazacycloheptadecino[16,17-f]quinoline-9-carboxamide]	200	392

Next, values leading:

EC50 [nM]	Emax [%]	SMILES
385	359	COc1cc(CCNC(=O)[C@@H]2CC(=O)N(C)[C@@H](CC(C)C)C(=O)N(C)C3(CC3)C(=O)N[C@H](Cc3ccccc3)COc3ccc4ncc(F)cc4c3C(=O)N2)on1 [Example 818, (3′S,7′S,13′R)-13′-benzyl-20′-fluoro-7′-isobutyl-N-(2-(3-methoxyisoxazol-5-yl)ethyl)-6′,9′-dimethyl-1′,5′,8′,11′-tetraoxo-2′,3′,4′,5′,6′,7′,8′,9′,11′,12′,13′,14′-dodecahydro-1′H-spiro[cyclopropane-1,10′-[1]oxa[4,7,10,14]tetraazacycloheptadecino[16,17-f]quinoline]-3′-carboxamide]
131	363	COc1cc(CCNC(=O)[C@@H]2CC(=O)N(C)[C@@H](CC(C)C)C(=O)N3CCCC[C@@H]3C(=O)N[C@H](Cc3ccccc3)COc3cc(C)c4ncccc4c3C(=O)N2)on1 [Example 822, (9S,13S,19aR,22R)-22-benzyl-13-isobutyl-N-(2-(3-methoxyisoxazol-5-yl)ethyl)-2,12-dimethyl-7,11,14,20-tetraoxo-7,8,9,10,11,12,13,14,17,18,19,19a,20,21,22,23-hexadecahydro-16H-pyrido[2′,1′:6,7][1]oxa[4,7,10,14]tetraazacycloheptadecino[16,17-f]quinoline-9-carboxamide]
241	366	Cc1cc2c3c(ccc2cn1)OC[C@@H](Cc1ccccc1)NC(=O)[C@H]1CCCCN1C(=O)[C@H](CC(C)C)N(C)C(=O)C[C@@H](C(=O)NCCn1nnc(C2CC2)n1)NC3=O [Example 823, (9S,13S,19aR,22R)-22-benzyl-N-(2-(5-cyclopropyl-2H-tetrazol-2-yl)ethyl)-13-isobutyl-5,12-dimethyl-7,11,14,20-tetraoxo-7,8,9,10,11,12,13,14,17,18,19,19a,20,21,22,23-hexadecahydro-16H-pyrido[2′,1′:6,7][1]oxa[4,7,10,14]tetraazacycloheptadecino[16,17-f]isoquinoline-9-carboxamide]
